Data as given in ChEMBL document CHEMBL4765285, “Discovery of orally active indirubin-3'-oxime derivatives as potent type 1 FLT3 inhibitors for acute myeloid leukemia” (Eur J Med Chem, 2020).
pIC50: −log10 of the molar value. Active and inactive are the calls of the source. The calls are words filed in the database; no cut-off is given here.

Legend:
[1] = Oral bioavailability in ICR mouse at 10 mg/kg measured up to 1440 mins by LC-MS/MS analysis; assay type: ADME, organism-based; details: in vivo
[2] = Half-life in ICR mouse at 10 mg/kg, iv or po measured up to 1440 mins by LC-MS/MS analysis; assay type: ADME, organism-based; details: in vivo
[3] = Clearance in ICR mouse at 10 mg/kg, iv or po measured up to 1440 mins by LC-MS/MS analysis; assay type: ADME, organism-based; details: in vivo
[4] = target: T1, Receptor-type tyrosine-protein kinase FLT3 (Homo sapiens, UniProt P36888)
T1 sequence (P36888 whole entry): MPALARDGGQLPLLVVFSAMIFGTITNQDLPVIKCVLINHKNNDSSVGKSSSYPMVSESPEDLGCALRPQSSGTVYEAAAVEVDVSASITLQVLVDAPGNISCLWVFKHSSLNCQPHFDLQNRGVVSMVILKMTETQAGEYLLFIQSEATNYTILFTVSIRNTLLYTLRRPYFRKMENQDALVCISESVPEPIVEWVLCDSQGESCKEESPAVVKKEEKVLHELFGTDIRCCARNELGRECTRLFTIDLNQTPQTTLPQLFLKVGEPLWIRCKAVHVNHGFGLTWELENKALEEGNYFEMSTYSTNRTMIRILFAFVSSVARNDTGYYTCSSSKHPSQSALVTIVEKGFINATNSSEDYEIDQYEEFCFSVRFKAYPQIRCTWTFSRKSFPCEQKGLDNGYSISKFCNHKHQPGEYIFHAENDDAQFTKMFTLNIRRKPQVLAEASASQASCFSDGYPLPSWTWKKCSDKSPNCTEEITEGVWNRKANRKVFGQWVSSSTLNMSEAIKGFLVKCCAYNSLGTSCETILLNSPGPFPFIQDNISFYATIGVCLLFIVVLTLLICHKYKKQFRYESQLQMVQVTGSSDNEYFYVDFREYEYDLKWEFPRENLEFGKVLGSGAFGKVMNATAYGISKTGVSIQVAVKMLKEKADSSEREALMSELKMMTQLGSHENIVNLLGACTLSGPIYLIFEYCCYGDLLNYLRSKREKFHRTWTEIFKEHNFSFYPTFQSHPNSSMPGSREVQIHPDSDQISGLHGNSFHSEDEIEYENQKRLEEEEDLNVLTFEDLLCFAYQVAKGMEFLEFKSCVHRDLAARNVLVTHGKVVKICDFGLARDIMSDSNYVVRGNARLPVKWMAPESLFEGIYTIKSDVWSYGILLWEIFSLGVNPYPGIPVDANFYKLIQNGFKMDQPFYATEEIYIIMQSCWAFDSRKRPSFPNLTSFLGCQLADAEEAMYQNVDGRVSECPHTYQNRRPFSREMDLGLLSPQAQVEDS

MV4-11 [5] = assay: cells; details: Homo sapiens, MV4-11, 72 h
MV4-11 [6] = assay: Antiproliferative activity against human MV4-11 cells assessed as cell growth inhibition by Celltiter-Glo luminescent assay; assay type: functional
K562 = assay: Antiproliferative activity against human K562 cells assessed as cell growth inhibition by WST assay; assay type: functional
MOLM-14 [7] = assay: cells; details: Homo sapiens
MOLM-14 [8] = assay: cells; details: Homo sapiens; remark: listed apart in the source
MOLM-14 [9] = assay: cells; details: Homo sapiens; remark: listed apart in the source
MOLM-14 [10] = assay: cells; details: Homo sapiens; remark: listed apart in the source
A549 = assay: cells; details: Homo sapiens, A549, read-out: INH
HepG2 = assay: cells; details: Homo sapiens
MDA-MB-231 = assay: cells; details: Homo sapiens, MDA-MB-231, read-out: INH
HCT-116 = assay: cells; details: Homo sapiens, HCT-116, read-out: INH
PC-3 = assay: cells; details: Homo sapiens, PC-3, read-out: INH
SK-OV-3 = assay: cells; details: Homo sapiens, SK-OV-3, read-out: INH
[11] = AUClast in ICR mouse at 10 mg/kg, iv or po measured up to 1440 mins by LC-MS/MS analysis; assay type: ADME, organism-based; set-up: dose 10 mg/kg, time <=1440; details: in vivo
[12] = Cmax in ICR mouse at 10 mg/kg, iv or po measured up to 1440 mins by LC-MS/MS analysis; assay type: ADME, organism-based; set-up: dose 10 mg/kg, time <=1440; details: in vivo
MV4-11 [13] = assay: Antitumor activity against human MV4-11 cells xenografted in BALB/c nu/nu mouse assessed as reduction in tumor volume at 20 mg/kg, po administered once daily for 21 days measured twice daily during compound dosing; assay type: functional, organism-based; details: time 21.0 day
[14] = Toxicity in BALB/c nu/nu mouse xenografted with human MV4-11 cells assessed as body weight loss at 20 mg/kg, po administered for 21 days; assay type: organism-based; details: in vivo, 504 h, time 21 day
MV4-11 [15] = assay: Antiproliferative activity against human MV4-11 cells assessed as growth inhibition after 72 hrs; assay type: functional

Row | pIC50 [4] | GI50 (MV4-11 [5]) [nM] | Compound | other results
1 | 7.80 | 8.3 | Cl.O=C1Nc2ccc(F)cc2/C1=C1/Nc2ccc(F)cc2/C1=N\OCCN1CCNCC1 | bioavailability [1]: 16.7%; half-life [2]: 3.4 h; clearance [3]: 28.1 mL/min/kg
2 | 8.02 | 11.9 | O=C1Nc2ccc(F)cc2/C1=C1/Nc2ccccc2/C1=N\OCCNC1CCNCC1 | 
3 | 7.91 | 26.5 | Cl.O=C1Nc2ccc([N+](=O)[O-])cc2/C1=C1/Nc2ccc(O)cc2/C1=N\OCCN1CCNCC1 | bioavailability [1]: 0%; clearance [3]: 70.4 mL/min/kg
4 | 7.72 | 50 | CN1CCN(CCO/N=C2/C(=C3/C(=O)Nc4ccc([N+](=O)[O-])cc43)Nc3ccc(O)cc32)CC1 | 
5 | 7.57 | 31.5 | CN1CCN(CCO/N=C2/C(=C3/C(=O)Nc4ccc(F)cc43)Nc3ccc(F)cc32)CC1 | 
6 |  |  | CCc1nc(C(N)=O)c(Nc2ccc(N3CCC(N4CCN(C)CC4)CC3)c(OC)c2)nc1NC1CCOCC1 [GILTERITINIB] | GI50 (MV4-11 [6]): 0.9 nM; GI50 (K562): 1010 nM; GI50 (MOLM-14 [7]): 4.94 nM; GI50 (MOLM-14 [8]): 3.29 nM; GI50 (MOLM-14 [9]): 1.91 nM; GI50 (MOLM-14 [10]): 5.24 nM; inhibition at 1 µM (A549): 4.05%; GI50 (HepG2): 2200 nM; inhibition at 1 µM (MDA-MB-231): 42.1%; inhibition at 1 µM (HCT-116): 45.1%; inhibition at 1 µM (PC-3): 41.8%; inhibition at 1 µM (SK-OV-3): 23.3%
7 | 6.59 | 212 | O=C1Nc2ccc(F)cc2/C1=C1/Nc2ccccc2/C1=N\OCCN1CCCC1 | 
8 |  | 133 | O=C1Nc2ccc([N+](=O)[O-])cc2/C1=C1/Nc2ccc(O)cc2/C1=N\O | 
9 | 7.88 | 7.01 | Cl.O=C1Nc2ccc([N+](=O)[O-])cc2/C1=C1/Nc2ccccc2/C1=N\OCCN1CCNCC1 | bioavailability [1]: 1.33%; clearance [3]: 108 mL/min/kg
10 | 8.57 |  | Cl.O=C1Nc2ccccc2/C1=C1/Nc2ccccc2/C1=N\OCCN1CCNCC1 | bioavailability [1]: 51%; AUC(0-t) at 24 h [11]: 1200 ng·h/mL; Cmax [12]: 69.7 ng/mL; Activity (MV4-11 [13]): Active; Activity [14]: Non-Toxic
11 | 7.56 | 10.2 | O=C1Nc2ccc([N+](=O)[O-])cc2/C1=C1/Nc2ccc(F)cc2/C1=N\OCCN1CCNCC1 | 
12 | 6.85 | 263 | O=C1Nc2ccc(F)cc2/C1=C1/Nc2ccccc2/C1=N\OCCN1CCCCC1 | 
13 | 8.07 | 95.3 | Cl.NCCO/N=C1/C(=C2/C(=O)Nc3ccc([N+](=O)[O-])cc32)Nc2ccc(O)cc21 | bioavailability [1]: 0%
14 | 6.89 | 138 | O=C1Nc2ccccc2/C1=C1/Nc2ccccc2/C1=N\OCCN1CCCCC1 | 
15 | 7.40 | 17 | O=C1Nc2ccc(OC(F)(F)F)cc2/C1=C1/Nc2ccccc2/C1=N\OCCN1CCNCC1 | 
16 | 7.01 | 116 | O=C1Nc2ccc(F)cc2/C1=C1/Nc2ccc(F)cc2/C1=N\OCCN1CCOCC1 | 
17 | 7.94 | 8.47 | Cl.O=C1Nc2ccc(F)cc2/C1=C1/Nc2ccc(F)cc2/C1=N\OCCNC1CCNCC1 | bioavailability [1]: 15.3%; half-life [2]: 9.2 h; clearance [3]: 231 mL/min/kg
18 | 7.91 | 22 | COc1ccc2c(c1)/C(=C1/Nc3ccccc3/C1=N\OCCN1CCNCC1)C(=O)N2 | 
19 | 7.35 | 105 | O=C1Nc2ccc(F)cc2/C1=C1/Nc2ccc(F)cc2/C1=N\OCCN1CCCCC1 | 
20 | 7.68 | 15.1 | O=C1Nc2ccccc2/C1=C1/Nc2ccccc2/C1=N\OCCNC1CCNCC1 | 
21 | 6.46 | 100 | O=C1Nc2ccc([N+](=O)[O-])cc2/C1=C1/Nc2ccc(O)cc2/C1=N\OCCN1CCOCC1 | 
22 | 7.51 | 118 | CN1CCN(CCO/N=C2/C(=C3/C(=O)Nc4ccc([N+](=O)[O-])cc43)Nc3ccc(F)cc32)CC1 | 
23 | 8.25 | 7 | CN1CCN(CCO/N=C2/C(=C3/C(=O)Nc4ccc(OC(F)(F)F)cc43)Nc3ccccc32)CC1 | 
24 | 8.68 | 20 | COc1ccc2c(c1)/C(=C1/Nc3ccccc3/C1=N\OCCN1CCN(C)CC1)C(=O)N2 | 
25 | 6.49 | 470 | O=C1Nc2ccc([N+](=O)[O-])cc2/C1=C1/Nc2ccc(O)cc2/C1=N\OCCBr | 
26 | 6.94 | 634 | O=C1Nc2ccc(F)cc2/C1=C1/Nc2ccc(F)cc2/C1=N\OCCN1CCCC1 | 
27 | 7.38 | 104 | O=C1Nc2ccccc2/C1=C1/Nc2ccccc2/C1=N\OCCN1CCCC1 | 
28 |  |  | COC(=O)c1ccc2c(c1)/C(=C1/Nc3ccccc3/C1=N\OCCN1CCNCC1)C(=O)N2 | bioavailability [1]: 1.43%; GI50 (MV4-11 [15]): 1 nM
29 | 8.48 | 11.1 | CN1CCN(CCO/N=C2/C(=C3/C(=O)Nc4ccc(F)cc43)Nc3ccccc32)CC1 | 
30 | 8.03 | 54.8 | CN1CCN(CCO/N=C2/C(=C3/C(=O)Nc4ccccc43)Nc3ccccc32)CC1 | 
